Two compounds from patent publication US12459943B2, “Crystalline solid forms of a BET inhibitor” (Incyte Corporation, priority 2016, dated 2025) can be followed below.

Data set [1] in a line: Stability of crystalline forms in aqueous suspension. The data set is classed as physicochemical. On the procedure:
Recrystallization conducted in a mixture of tetrahydrofuran (THF), acetone, and n-heptane using similar procedures as above afford Form II of the crystalline Compound 1 drug substance was obtained. Both Form I and Form II have very sharp melting endotherm peaks on DSC, and the two forms are about one degree difference in peak melting temperature: 266.4° C. for Form I and 267.5° C. for Form II.

Data set [2] is described as follows: Relative stability and interconversion of crystalline forms in organic solvents. Type of data set: physicochemical.

Regarding `CN1C(=O)C(C)(C)Oc2c(-c3cn(C)c(=O)c4[nH]ccc34)cc(S(C)(=O)=O)cc21` [Form I, 2,2,4-trimethyl-8-(6-methyl-7-oxo-6,7-dihydro-1H-pyrrolo[2,3-c]pyridin-4-yl)-6-(methylsulfonyl)-2H-benzo[b][1,4]oxazin-3(4H)-one], in data set [1], the “stability in aqueous suspension” value was “stable in aqueous suspension”. Moreover, the “relative stability of the crystalline form in MeOH and acetone” value in data set [2] (MeOH and acetone) is “most stable form”. In data set [2] (mixture of methanol, acetone, and n-heptane, depending on solvent ratio, temperature, and time), the interconversion of forms entry was “could be interconverted to each other”.

With `CN1C(=O)C(C)(C)Oc2c(-c3cn(C)c(=O)c4[nH]ccc34)cc(S(C)(=O)=O)cc21` [Form II, 2,2,4-trimethyl-8-(6-methyl-7-oxo-6,7-dihydro-1H-pyrrolo[2,3-c]pyridin-4-yl)-6-(methylsulfonyl)-2H-benzo[b][1,4]oxazin-3(4H)-one], the “relative stability of the crystalline form in IPA” value in data set [2] (IPA) is “more stable”.
